# Like-named read-outs stand apart in the source and are kept apart here. Starred links: 1 amine or outer side, 2 acyl side, 3 side chain; linkers in the order of their positions; H or OH if unused. Non-standard residues stand in square brackets, D forms with d. Residues, ends and D or L forms follow the SMILES beside them. X1 = O=C(c1cc(O)ccc1N[*:1])[*:2]
# Key:
# [1] = tested on: cyprids of barnacle B. amphitrite; assay: Anti-larval settlement bioassay (antifouling activity and larval toxicity); type: in vivo; conditions: for LC50/EC50 ratio (therapeutic ratio): B. amphitrite cyprids, ratio >15 considered non-toxic; for LC50 / EC50: cyprids of B. amphitrite, 48 h at 28 °C; for LC50: concentration where 50% of larvae were dead; for EC50: concentration where 50% of larvae were inhibited to settle vs negative control, read-out: EC50 (larval settlement inhibition); for inhibition of larval settlement in preliminary screening: B. amphitrite, at 25.0 μg ml^−1
# Method: (§1) The newly released nauplii were screened with the aperture of 90 μm. The newly released nauplii were raised in filtered seawater (FSW) at 28 °C with mild aeration and fed with Chaetoceros gracilis Schutt at 1 × 10^6 cells ml^−1. The nauplius larvae transformed into cyprids (ready to attach and metamorphose) after 3.5 days. Newly transformed cyprids were kept in filtered seawater at 4 °C overnight before being used in the anti-larval settlement bioassay.
# (§2) The antifouling activity was evaluated as larval settlement inhibition against the cyprids of barnacle B. amphitrite using 24-well polystyrene plates (Nunc, Naperville, CA, USA). Each compound was dissolved in a stock solution of DMSO with the concentration of 50 mg ml^−1, and then diluted 1000 times with FSW to 50 μg ml^−1. The compound was further transferred into FSW to make up the following test solution with the concentrations ranging from 25 to 0.50 μg ml^−1. One millilitre of the test solution and 16–20 larvae were allocated to each well of the 24-well plate. Each concentration had three replicate wells. The plates were cultivated in darkness for 48 h at 28 °C. The effects of the test compounds against the larvae settlement were determined by examining the plates under a dissecting microscope to check for (1) settled larvae (attached and metamorphosed), (2) swimming larvae, as well as (3) any possible toxic effects of the treatments (dead and paralyzed). The number of the settled larvae was expressed as a percentage of the total number of larvae per well. Each compound was tested by triplicate experiments using three different batches of larvae.
# (§3) The EC50 and LC50 values of each compound were calculated according to the records of anti-larval settlement experiments. […] Then a concentration–response curve was plotted and a tread line was set up.
# [2] = as above; type: in vivo; conditions: Balanus (Amphibalanus) amphitrite (barnacle cyprid larvae), in vivo, cyprids of B. amphitrite, 48 h at 28 °C, concentration where 50% of larvae were dead; for LC50 at 48 h: other: larvae immersed in test solution
# Method: as §1, §2, §3
Compound,LC50/EC50 ratio (therapeutic ratio) [1],LC50 [1] [µM],EC50 [1] [µM],other results
1-Formyl-4-methyl-7-isopropylazulene [compound 17],>16.1,> 236,14.7,
"Cc1cc(C=O)c2c(C)ccc(C(C)C)cc1-2 [compound 16, 1-Formylguaiazulene]",,,,"EC50 ([1]; Amphibalanus amphitrite, 48 h): 42 µM; LC50 at 48 h [2]: 221 µM"
"COC(=O)c1ccccc1NC(=O)[C@H](CC[S+](C)[O-])NC(=O)c1cnc2c(n1)c(=O)n(C)c(=O)n2C (some centres unmarked) [compound 53, Penilumamide]",,> 96.9,> 96.9,
"C/C(=C\[C@H](O)C[C@@H](C)CCCc1ccoc1)CCCc1ccoc1 [compound 22, Furospongin-1]",25.2,,6.06,"EC50 ([1]; Amphibalanus amphitrite, 48 h): 6.05 µM; inhibition of larval settlement in preliminary screening [1]: completely inhibited; LC50 at 48 h [2]: 153 µM"
"COc1cc(C)c(C(=O)O[C@@H]2[C@H](O)[C@@H](CO)O[C@H]2n2ccc(=O)[nH]c2=O)c(OC)c1 [compound 49, Kipukasin E]",,> 59.2,> 59.2,
"C[C@H](NC(=O)c1cnc2c(n1)c(=O)n(C)c(=O)n2C)C(=O)Nc1ccccc1C(N)=O [compound 54, Penilumamide D]",,> 58.8,> 58.8,
"C[C@]12CC[C@H](O)[C@H](O1)c1c(cc3c(c1O)C(=O)c1c(O)cc(O)cc1C3=O)O2 [compound 34, Nidurufin]",,> 130,> 65.1,
"CC(=O)OCCC1(C)C(C2=CC(OC(C)=O)C3CC(OC(C)=O)CCC3(C)C2=O)CCC1C(C)C=CCC(C)C (stereo not drawn) [compound 31, (22E)-3,6,11-Triacetoxy-9,11-seco-5α-cholesta-7,22-dien-9-one]",8.00,96.8,12.1,
"C[C@]12CCC[C@H](O1)c1c(cc3c(c1O)C(=O)c1c(O)cc(O)cc1C3=O)O2 [compound 32, Averufin]",>14.7,> 136,9.27,
"CC(C)CCC(C)C1CCC(C2=CC(O)C3CC(O)CCC3(C)C2=O)C1(C)CCO (stereo not drawn) [compound 23, 3β,6α,11-Trihydroxy-24-nor-9,11-seco-5α-cholest-7-en-9-one]",,59.5,10.7,inhibition of larval settlement in preliminary screening [1]: completely inhibited
"CC1=CC(=O)c2c1cc(C(C)C)c(C=O)c2C [compound 19, 3,8-Dimethyl-5-isopropyl-6-formylindenone]",,> 219,> 110,
"COc1cc(O)cc2c1C(=O)c1c(O)cc(CO)c(O)c1C2=O [compound 36, ω-Hydroxyrubrocristin]",,> 158,> 79.1,
"CC(=O)Oc1cc(C)cc(Oc2cc(C)cc(OC(C)=O)c2)c1 [compound 11, 3,3′-O-diacetyl-diorcinol]",,,,LC50 at 48 h [2]: 49.4 µM
"COc1cc(C)c(C(=O)O[C@@H]2[C@H](OC(C)=O)[C@@H](COC(C)=O)O[C@H]2n2ccc(=O)[nH]c2=O)c(OC)c1 [compound 51, Diacetylkipukasin E]",>2.22,> 98.8,44.5,
"CC1=CC(=O)c2c(C)cc3oc(=O)c(C)c-3cc21 [compound 21, Ketolactone]",,,,"EC50 ([1]; Amphibalanus amphitrite, 48 h): > 104 µM; LC50 at 48 h [2]: > 208 µM"
"C=CC(C)(C)c1[nH]c2ccccc2c1/C=C1\NC(=O)C2(C=C3c4cc(O)cc(O)c4C(=O)c4c(O)cc(C)c(c43)O2)NC1=O (centres unmarked) [compound 42, Variecolortide B]",,> 84.9,> 84.9,
"CC(C)C(C)C=CC(C)C1CCC(C2=CC(O)C3CC(O)CCC3(C)C2=O)C1(C)CCO [compound 28, (22E,24R)-3β,6α,11-trihydroxy-24-Methyl-9,11-seco-5α-cholesta-7,22-dien-9-one]",>1.25,> 56.1,44.8,
"CC(C)CCCC(C)C1CCC(C2=CC(O)C3CC(O)CCC3(C)C2=O)C1(C)CCO (stereo not drawn) [compound 26, 3β,6α,11-Trihydroxy-9,11-seco-5α-cholest-7-en-9-one]",,57.6,28.6,inhibition of larval settlement in preliminary screening [1]: completely inhibited
"CC1=CC(=O)c2c(C)cc(C(=O)C(C)C)cc21 [compound 20, Ochracenoid B]",,> 219,> 110,

Compound,LC50/EC50 ratio (therapeutic ratio) [1],LC50 [1] [µM],EC50 [1] [µM],other results
"COc1cc(O)c(-c2c3c(c(O)c4c(OC)cc(O)cc24)C(=O)C=C(C)C3=O)c2cc3c(c(O)c12)C(=O)C[C@@](C)(O)C3 [compound 37, Asperinine A]",>2.88,> 87.7,30.5,
"CC1=C[C@@H]2/C=C(\C)CC[C@H](O)[C@H](O)[C@@H](O)CC(=O)[C@]23C(=O)N[C@@H](CC(C)C)[C@@H]3[C@@H]1C [compound 47, Aspochalasin E]",>3.70,,,EC50 ([1]; Amphibalanus amphitrite): 32.2 µM; LC50 [2]: > 119 µM
"COc1cc(O)c(-c2c3c(c(O)c4c(OC)cc(O)cc24)C(=O)C=C(C)C3=O)c2cc3c(c(O)c12)C(=O)C[C@@](C)(O)C3 [compound 38, Asperinine B]",>2.22,> 87.7,39.5,
"CC(=O)Oc1cc(C)cc(Oc2cc(C)cc(O)c2)c1 [compound 9, 3-O-acetyl-diorcinol]",,,,LC50 at 48 h [2]: 64.3 µM
"COc1cc(O)cc2c1C(=O)c1c(cc3c(c1O)[C@H]1O[C@](C)(CC[C@@H]1O)O3)C2=O [compound 33, 8-O-methylnidurufin]",>8.75,> 126,14.4,
"CC[C@H](O)c1cc(O)c2c(c1)C(=O)c1cc(O)cc(O)c1C2=O [compound 39, Rhodoptilometrin]",13.4,159,11.9,
"C[C@@H]1NC(=O)[C@H](Cc2ccc(O)cc2)NC(=O)c2cc(O)ccc2NC(=O)[C@@H]2CCCN2C(=O)[C@H](C)NC1=O [compound 55, Asperpeptide A] (cyclo(AAP[X1]Y))",,> 46.6,> 46.6,
"C=C(CCC(C)C1CCC(C2=CC(O)C3CC(O)CCC3(C)C2=O)C1(C)CCO)C(C)C (stereo not drawn) [compound 27, 3β,6α,11-Trihydroxy-9,11-seco-5α-cholesta-7,24(28)-dien-9-one]",,> 56.1,> 56.1,
"C=CC(C)(C)c1[nH]c2ccc(CC=C(C)C)cc2c1C=C1NC(=O)C2(C=C3c4cc(O)cc(OC)c4C(=O)c4c(O)cc(C)c(c43)O2)NC1=O (centres unmarked) [compound 41, 7-O-methylvariecolortide A]",,> 74.5,> 74.5,
Variecolortide C [compound 40],,> 82.9,> 82.9,
"COc1cc(O)cc2c1C(=O)c1c(O)cc(CO)cc1C2=O [compound 35, Questinol]",,> 167,> 83.3,
"CC(C)C(C)CCC(C)C1CCC(C2=CC(O)C3CC(O)CCC3(C)C2=O)C1(C)CCO (mixture of isomers) [compound 24, (24R)-and(24S)-3β,6α,11-Trihydroxy-methyl-9,11-seco-5α-cholest-7-en-9-one]",,> 112,> 55.8,
"CC(C)CC=CC(C)C1CCC(C2=CC(O)C3CC(O)CCC3(C)C2=O)C1(C)CCO (stereo not drawn) [compound 29, (22E)-3β,6α,11-Trihydroxy-9,11-seco-5α-cholesta-7,22-dien-9-one]",,57.9,14.7,
"CC(C)C=CC(C)C1CCC(C2=CC(O)C3CC(O)CCC3(C)C2=O)C1(C)CCO (stereo not drawn) [compound 25, (22E)-3β,6α,11-Trihydroxy-24-nor-9,11-seco-5α-cholesta-7,22-dien-9-one]",,59.8,29.9,inhibition of larval settlement in preliminary screening [1]: completely inhibited
"CC(=O)OCCC1(C)C(C2=CC(OC(C)=O)C3CC(O)CCC3(C)C2=O)CCC1C(C)C=CCC(C)C (stereo not drawn) [compound 30, (22E)-6,11-Diacetoxy-3-hydroxy-9,11-seco-5α-cholesta-7,22-dien-9-one]",16.1,96.8,6.01,
"COc1cc(C)c(C(=O)O[C@H]2[C@@H](O)[C@H](n3ccc(=O)[nH]c3=O)O[C@@H]2CO)c(OC)c1 [compound 50, Kipukasin D]",,> 59.2,> 59.2,
"COc1cc(O)cc(C)c1C(=O)O[C@@H]1[C@H](O)[C@@H](CO)O[C@H]1n1ccc(=O)[nH]c1=O [compound 48, Kipukasin H]",,> 123,> 61.3,
"COc1cc(C)c(C(=O)O[C@H]2[C@@H](OC(C)=O)[C@H](n3ccc(=O)[nH]c3=O)O[C@@H]2COC(C)=O)c(OC)c1 [compound 52, Diacetylkipukasin D]",,> 98.8,> 49.4,

# Source: publication PMC5081312, “Antifouling phenyl ethers and other compounds from the invertebrates and their symbiotic fungi collected from the South China Sea” (AMB Express, 2016)
